Several values for one entry are separate records, joined by “and”; a condition that tells them apart may be missing. Equal entries are not always repeated.
Assays:
NCI-H929 = experiment: Inhibition of cell proliferation (CellTiter-Glo or InCell analyzer), NCI-H929; format: cell-based; conditions: Homo sapiens, 72 h / 3 days, values given as IC50 category
Method in brief: In one

[1] = target: T1, NIH-3T3 cells overexpressing human IR (Homo sapiens, UniProt P06213); experiment: IR cellular autophosphorylation (DELFIA); format: cell-based; conditions: 2 h compound, insulin 3 ug/ml for 15 minutes, IC50 category
T1 construct: expressed in transfected cells; host or cells: NIH-3T3 (mouse fibroblasts)
Method in brief: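 Receptor autophosphorylation measured by DELFIA, capturing IGF-1R or IRβ and detecting with europium anti-pTyr, reported as percent of IGF-1- or insulin-stimulated signal. Compounds (30 uM to 1.5 nM) added 2 h before ligand, then 15 min stimulation (IGF-1 30 ng/ml or insulin 3 ug/ml).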

ALK = ALK (Homo sapiens, UniProt Q9UM73); experiment: ALK enzyme assay (HTRF); format: biochemical; conditions: 0.25 nM ALK, 15.0 μM ATP, values given as pIC50 category
Method in brief: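 Isolated ALK phosphorylates a biotinylated tyrosine peptide, 120 min at 20° C; anti-phosphotyrosine Eu-cryptate/streptavidin-XL665 HTRF read after 60 min with EDTA-containing detection mix.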

Colo205 = experiment: Inhibition of cell proliferation (CellTiter-Glo or InCell analyzer), Colo205; format: cell-based; conditions: Homo sapiens, COLO 205, 72 h / 3 days, values given as IC50 category
Method in brief: In one

ALK, sequence (Q9UM73 19-1620): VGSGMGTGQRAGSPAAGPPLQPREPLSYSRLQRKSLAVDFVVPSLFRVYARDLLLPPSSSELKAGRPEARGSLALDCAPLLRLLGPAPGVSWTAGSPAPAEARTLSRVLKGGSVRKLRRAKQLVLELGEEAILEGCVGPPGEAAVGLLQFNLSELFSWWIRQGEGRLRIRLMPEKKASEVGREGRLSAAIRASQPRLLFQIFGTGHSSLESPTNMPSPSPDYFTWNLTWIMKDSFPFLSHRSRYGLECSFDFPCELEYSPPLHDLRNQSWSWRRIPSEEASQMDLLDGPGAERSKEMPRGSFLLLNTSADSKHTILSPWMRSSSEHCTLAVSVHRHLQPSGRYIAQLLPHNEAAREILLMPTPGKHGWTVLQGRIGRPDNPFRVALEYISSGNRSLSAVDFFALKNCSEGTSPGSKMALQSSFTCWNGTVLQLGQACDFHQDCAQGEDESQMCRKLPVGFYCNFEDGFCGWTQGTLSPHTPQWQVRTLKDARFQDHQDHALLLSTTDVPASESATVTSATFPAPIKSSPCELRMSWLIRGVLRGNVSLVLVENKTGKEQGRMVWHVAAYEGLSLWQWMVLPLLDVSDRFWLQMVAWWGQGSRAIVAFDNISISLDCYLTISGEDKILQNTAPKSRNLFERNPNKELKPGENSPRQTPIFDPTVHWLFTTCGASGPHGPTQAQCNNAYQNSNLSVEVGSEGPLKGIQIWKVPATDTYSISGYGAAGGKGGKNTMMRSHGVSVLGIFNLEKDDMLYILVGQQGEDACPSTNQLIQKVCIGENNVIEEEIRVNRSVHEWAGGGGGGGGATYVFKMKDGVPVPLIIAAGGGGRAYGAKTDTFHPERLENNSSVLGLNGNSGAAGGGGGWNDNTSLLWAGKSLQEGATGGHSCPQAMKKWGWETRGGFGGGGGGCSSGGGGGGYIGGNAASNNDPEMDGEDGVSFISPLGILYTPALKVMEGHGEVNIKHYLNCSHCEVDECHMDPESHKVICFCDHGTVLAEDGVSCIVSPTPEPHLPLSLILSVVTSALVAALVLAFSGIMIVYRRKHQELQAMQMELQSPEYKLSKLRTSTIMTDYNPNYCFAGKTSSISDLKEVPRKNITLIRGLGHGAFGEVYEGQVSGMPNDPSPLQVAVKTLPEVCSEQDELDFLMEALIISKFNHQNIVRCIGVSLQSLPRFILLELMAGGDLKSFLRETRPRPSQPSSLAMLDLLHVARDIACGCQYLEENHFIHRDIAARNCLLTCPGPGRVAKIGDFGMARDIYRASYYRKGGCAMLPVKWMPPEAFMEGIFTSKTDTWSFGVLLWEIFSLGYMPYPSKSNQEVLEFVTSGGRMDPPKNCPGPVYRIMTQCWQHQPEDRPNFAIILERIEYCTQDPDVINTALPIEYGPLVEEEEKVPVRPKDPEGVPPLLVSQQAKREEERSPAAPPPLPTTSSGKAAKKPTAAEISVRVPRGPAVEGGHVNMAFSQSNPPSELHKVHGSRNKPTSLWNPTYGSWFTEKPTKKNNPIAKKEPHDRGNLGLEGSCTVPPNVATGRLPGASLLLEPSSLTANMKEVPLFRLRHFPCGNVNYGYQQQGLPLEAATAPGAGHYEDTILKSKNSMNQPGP
T1 sequence (P06213 28-1382): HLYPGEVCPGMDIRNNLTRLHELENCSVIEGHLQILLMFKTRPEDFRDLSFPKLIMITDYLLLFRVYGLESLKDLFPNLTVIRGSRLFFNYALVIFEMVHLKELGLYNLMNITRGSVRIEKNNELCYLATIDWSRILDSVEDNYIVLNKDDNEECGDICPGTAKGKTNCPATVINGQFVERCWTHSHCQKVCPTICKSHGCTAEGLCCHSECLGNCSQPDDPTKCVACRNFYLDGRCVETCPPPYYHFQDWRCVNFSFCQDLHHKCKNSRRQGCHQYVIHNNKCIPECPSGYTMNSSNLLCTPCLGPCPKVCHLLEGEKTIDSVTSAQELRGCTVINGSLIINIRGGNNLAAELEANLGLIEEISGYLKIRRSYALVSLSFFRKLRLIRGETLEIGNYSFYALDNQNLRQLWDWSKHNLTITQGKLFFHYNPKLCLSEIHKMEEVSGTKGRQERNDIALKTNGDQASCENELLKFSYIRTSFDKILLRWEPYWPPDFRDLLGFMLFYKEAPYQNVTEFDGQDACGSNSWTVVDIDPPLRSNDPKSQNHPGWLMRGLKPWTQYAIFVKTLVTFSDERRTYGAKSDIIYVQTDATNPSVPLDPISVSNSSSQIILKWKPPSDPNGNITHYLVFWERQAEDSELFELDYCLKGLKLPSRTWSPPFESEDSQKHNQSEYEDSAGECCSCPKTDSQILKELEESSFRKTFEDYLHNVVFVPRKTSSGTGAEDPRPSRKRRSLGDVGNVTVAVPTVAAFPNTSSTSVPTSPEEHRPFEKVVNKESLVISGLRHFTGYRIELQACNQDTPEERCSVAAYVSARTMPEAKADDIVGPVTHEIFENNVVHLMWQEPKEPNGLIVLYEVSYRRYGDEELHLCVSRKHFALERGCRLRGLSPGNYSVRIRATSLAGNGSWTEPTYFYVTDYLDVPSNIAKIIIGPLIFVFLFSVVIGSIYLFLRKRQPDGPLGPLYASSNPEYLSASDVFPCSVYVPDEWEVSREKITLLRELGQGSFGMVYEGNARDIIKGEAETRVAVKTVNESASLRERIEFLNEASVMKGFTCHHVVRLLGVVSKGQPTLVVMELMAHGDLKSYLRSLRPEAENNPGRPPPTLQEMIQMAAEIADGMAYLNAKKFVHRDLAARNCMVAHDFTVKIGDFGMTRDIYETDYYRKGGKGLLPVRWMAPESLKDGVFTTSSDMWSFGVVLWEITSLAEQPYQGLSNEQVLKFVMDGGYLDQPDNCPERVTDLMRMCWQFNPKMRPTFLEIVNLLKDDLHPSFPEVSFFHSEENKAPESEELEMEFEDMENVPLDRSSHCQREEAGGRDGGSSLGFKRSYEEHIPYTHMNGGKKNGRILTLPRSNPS

| SMILES | IC50 (NCI-H929) | IC50 [1] | IC50 (ALK) | IC50 (Colo205) |
| --- | --- | --- | --- | --- |
| COc1cc2c(cc1Nc1nc(Nc3cc(F)cc(F)c3C(=O)NCc3ccc(F)cc3)c3cc[nH]c3n1)N(C(=O)CN(C)C)CC2 [Example 155, 2-[(2-{[1-(N,N-dimethylglycyl)-5-(methyloxy)-2,3-dihydro-1H-indol-6-yl]amino}-1H-pyrrolo[2,3-d]pyrimidin-4-yl)amino]-4,6-difluoro-N-[(4-fluorophenyl)methyl]benzamide] | > 1 µM | 0.1 to 0.5 µM | 0.00501 to 0.2 µM | > 1 µM |
| CCCNC(=O)c1c(F)cccc1Nc1nc(Nc2cc3c(cc2OC)CCN3C(=O)CN(C)C)nc2[nH]ccc12 [Example 156, 2-[(2-{[1-(N,N-dimethylglycyl)-5-(methyloxy)-2,3-dihydro-1H-indol-6-yl]amino}-1H-pyrrolo[2,3-d]pyrimidin-4-yl)amino]-6-fluoro-N-propylbenzamide] | 0.25 to 1 µM | 0.1 to 0.5 µM | 0.000251 to 0.001 µM | > 1 µM |
| COc1cc2c(cc1Nc1nc(Nc3cccc(F)c3C(=O)NCC(C)C)c3cc[nH]c3n1)N(C(=O)CN(C)C)CC2 [Example 157, 2-[(2-{[1-(N,N-dimethylglycyl)-5-(methyloxy)-2,3-dihydro-1H-indol-6-yl]amino}-1H-pyrrolo[2,3-d]pyrimidin-4-yl)amino]-6-fluoro-N-(2-methylpropyl)benzamide] | 0.25 to 1 µM | 0.1 to 0.5 µM | 0.00126 to 0.00398 µM | > 1 µM |
| COc1cc2c(cc1Nc1nc(Nc3cccc(F)c3C(=O)NC(C)C)c3cc[nH]c3n1)N(C(=O)CN(C)C)CC2 [Example 158, 2-[(2-{[1-(N,N-dimethylglycyl)-5-(methyloxy)-2,3-dihydro-1H-indol-6-yl]amino}-1H-pyrrolo[2,3-d]pyrimidin-4-yl)amino]-6-fluoro-N-(1-methylethyl)benzamide] | 0.25 to 1 µM | > 0.5 µM | 0.000251 to 0.001 µM | 0.25 to 1 µM |
| CNC(=O)c1c(F)cc(Cl)cc1Nc1nc(Nc2cc3c(cc2OC)CCCN3C(=O)CN2CCCC2)nc2[nH]ccc12 [Example 174, 4-chloro-2-fluoro-N-methyl-6-[(2-{[6-(methyloxy)-1-(1-pyrrolidinylacetyl)-1,2,3,4-tetrahydro-7-quinolinyl]amino}-1H-pyrrolo[2,3-d]pyrimidin-4-yl)amino]benzamide] | 0.25 to 1 µM | 0.1 to 0.5 µM | 0.00126 to 0.00398 µM | 0.25 to 1 µM |
| CCN(CCO)CC(=O)N1CCc2cc(OC)c(Nc3nc(Nc4cccc(F)c4C(N)=O)c4cc[nH]c4n3)cc21 [Example 177, 2-[(2-{[1-[N-ethyl-N-(2-hydroxyethyl)glycyl]-5-(methyloxy)-2,3-dihydro-1H-indol-6-yl]amino}-1H-pyrrolo[2,3-d]pyrimidin-4-yl)amino]-6-fluorobenzamide] | 0.25 to 1 µM | 0.1 to 0.5 µM | 0.00126 to 0.00398 µM | > 1 µM |
| CNC(=O)c1c(F)cccc1Nc1nc(Nc2cc3c(cc2OC)N(C(=O)CN(C)C)CC3)nc2[nH]ccc12 [Example 198, 2-[(2-{[1-(N,N-dimethylglycyl)-6-(methyloxy)-2,3-dihydro-1H-indol-5-yl]amino}-1H-pyrrolo[2,3-d]pyrimidin-4-yl)amino]-6-fluoro-N-methylbenzamide] | 0.25 to 1 µM | > 0.5 µM | 0.00126 to 0.00398 µM | < 0.25 µM |
| CNC(=O)c1c(F)cccc1Nc1nc(Nc2cc3c(cc2OC)CCCN3C(=O)CN(C)C)nc2[nH]ccc12 [Example 212, 2-[(2-{[1-(N,N-dimethylglycyl)-6-(methyloxy)-1,2,3,4-tetrahydro-7-quinolinyl]amino}-1H-pyrrolo[2,3-d]pyrimidin-4-yl)amino]-6-fluoro-N-methylbenzamide] | < 0.25 µM | 0.1 to 0.5 µM | 0.00126 to 0.00398 µM | 0.25 to 1 µM |
| CNC(=O)c1c(F)cccc1Nc1nc(Nc2cc3c(cc2OC)CCCN3C(=O)CN2CCCCC2)nc2[nH]ccc12 [Example 217, 2-fluoro-N-methyl-6-[(2-{[6-(methyloxy)-1-(1-piperidinylacetyl)-1,2,3,4-tetrahydro-7-quinolinyl]amino}-1H-pyrrolo[2,3-d]pyrimidin-4-yl)amino]benzamide] | < 0.25 µM | < 0.1 µM | 0.00501 to 0.2 µM | 0.25 to 1 µM |
| COc1cc2c(cc1Nc1nc(Nc3cccc(F)c3C(N)=O)c3cc[nH]c3n1)CN(CCF)CC2 [Example 233, 2-fluoro-6-[(2-{[2-(2-fluoroethyl)-6-(methyloxy)-1,2,3,4-tetrahydro-7-isoquinolinyl]amino}-1H-pyrrolo[2,3-d]pyrimidin-4-yl)amino]benzamide] | < 0.25 µM | < 0.1 µM | 0.00126 to 0.00398 µM | 0.25 to 1 µM |
| COc1cc2c(cc1Nc1nc(Nc3cccc(F)c3C(N)=O)c3cc[nH]c3n1)CN(C(C)C)CC2 [Example 236, 2-fluoro-6-[(2-{[2-(1-methylethyl)-6-(methyloxy)-1,2,3,4-tetrahydro-7-isoquinolinyl]amino}-1H-pyrrolo[2,3-d]pyrimidin-4-yl)amino]benzamide] | < 0.25 µM | 0.1 to 0.5 µM | 0.00126 to 0.00398 µM | 0.25 to 1 µM |
| CCC(C)N1CCc2cc(OC)c(Nc3nc(Nc4cccc(F)c4C(N)=O)c4cc[nH]c4n3)cc2C1 (stereo not drawn) [Example 237, 2-fluoro-6-[(2-{[6-(methyloxy)-2-(1-methylpropyl)-1,2,3,4-tetrahydro-7-isoquinolinyl]amino}-1H-pyrrolo[2,3-d]pyrimidin-4-yl)amino]benzamide] | < 0.25 µM | < 0.1 µM | 0.00126 to 0.00398 µM | 0.25 to 1 µM |
| COc1cc2c(cc1Nc1nc(Nc3cc(F)cc(F)c3C(N)=O)c3cc[nH]c3n1)CN(CCF)CC2 [Example 239, 2,4-difluoro-6-[(2-{[2-(2-fluoroethyl)-6-(methyloxy)-1,2,3,4-tetrahydro-7-isoquinolinyl]amino}-1H-pyrrolo[2,3-d]pyrimidin-4-yl)amino]benzamide] | 0.25 to 1 µM | > 0.5 µM | 0.00126 to 0.00398 µM | > 1 µM |

Second part, the compound after the results:

| IC50 (NCI-H929) | IC50 [1] | IC50 (ALK) | IC50 (Colo205) | SMILES |
| --- | --- | --- | --- | --- |
| < 0.25 µM | < 0.1 µM | 0.00126 to 0.00398 µM | < 0.25 µM | COc1cc2c(cc1Nc1nc(Nc3ccc(F)c(F)c3C(N)=O)c3cc[nH]c3n1)N(C(=O)CN(C)C)CCC2 [Example 162, 6-[(2-{[1-(N,N-dimethylglycyl)-6-(methyloxy)-1,2,3,4-tetrahydro-7-quinolinyl]amino}-1H-pyrrolo[2,3-d]pyrimidin-4-yl)amino]-2,3-difluorobenzamide] |
| < 0.25 µM | < 0.1 µM | 0.00126 to 0.00398 µM | 0.25 to 1 µM | CNC(=O)c1c(Nc2nc(Nc3cc4c(cc3OC)CCCN4C(=O)CN(C)C)nc3[nH]ccc23)ccc(F)c1F [Example 163, 6-[(2-{[1-(N,N-dimethylglycyl)-6-(methyloxy)-1,2,3,4-tetrahydro-7-quinolinyl]amino}-1H-pyrrolo[2,3-d]pyrimidin-4-yl)amino]-2,3-difluoro-N-methylbenzamide] |
| < 0.25 µM | < 0.1 µM | 0.00126 to 0.00398 µM | 0.25 to 1 µM | CCN(C)CC(=O)N1CCc2cc(OC)c(Nc3nc(Nc4cccc(F)c4C(N)=O)c4cc[nH]c4n3)cc21 [Example 166, 2-[(2-{[1-(N-ethyl-N-methylglycyl)-5-(methyloxy)-2,3-dihydro-1H-indol-6-yl]amino}-1H-pyrrolo[2,3-d]pyrimidin-4-yl)amino]-6-fluorobenzamide] |
| < 0.25 µM | 0.1 to 0.5 µM | 0.00126 to 0.00398 µM and 0.000251 to 0.001 µM | 0.25 to 1 µM | CCCN(C)CC(=O)N1CCc2cc(OC)c(Nc3nc(Nc4cccc(F)c4C(=O)NC)c4cc[nH]c4n3)cc21 [Example 167, 2-fluoro-N-methyl-6-[(2-{[5-(methyloxy)-1-(N-methyl-N-propylglycyl)-2,3-dihydro-1H-indol-6-yl]amino}-1H-pyrrolo[2,3-d]pyrimidin-4-yl)amino]benzamide] |
| < 0.25 µM | > 0.5 µM | 0.00126 to 0.00398 µM | < 0.25 µM | COc1cc2c(cc1Nc1nc(Nc3cccc(F)c3C(N)=O)c3cc[nH]c3n1)CCN2C(=O)CN(C)C [Example 197, 2-[(2-{[1-(N,N-dimethylglycyl)-6-(methyloxy)-2,3-dihydro-1H-indol-5-yl]amino}-1H-pyrrolo[2,3-d]pyrimidin-4-yl)amino]-6-fluorobenzamide] |
| < 0.25 µM | < 0.1 µM | 0.000251 to 0.001 µM | < 0.25 µM | COc1cc(N2CCN(C(C)C)CC2)ccc1Nc1nc(Nc2cccc3c2C(=O)NC3)c2cc[nH]c2n1 [Example 199, 7-[(2-{[4-[4-(1-methylethyl)-1-piperazinyl]-2-(methyloxy)phenyl]amino}-1H-pyrrolo[2,3-d]pyrimidin-4-yl)amino]-2,3-dihydro-1H-isoindol-1-one] |
| < 0.25 µM | 0.1 to 0.5 µM | 0.00126 to 0.00398 µM | 0.25 to 1 µM | CCCN1CCC(COc2ccc(Nc3nc(Nc4cccc(F)c4C(N)=O)c4cc[nH]c4n3)c(OC)c2)CC1 [Example 206, 2-fluoro-6-({2-[(2-(methyloxy)-4-{[(1-propyl-4-piperidinyl)methyl]oxy}phenyl)amino]-1H-pyrrolo[2,3-d]pyrimidin-4-yl}amino)benzamide] |
| < 0.25 µM | 0.1 to 0.5 µM | 0.000251 to 0.001 µM | < 0.25 µM | COc1cc(N2CCCN(C)CC2)ccc1Nc1nc(Nc2cccc(F)c2C(N)=O)c2cc[nH]c2n1 [Example 209, 2-fluoro-6-[(2-{[4-(4-methylhexahydro-1H-1,4-diazepin-1-yl)-2-(methyloxy)phenyl]amino}-1H-pyrrolo[2,3-d]pyrimidin-4-yl)amino]benzamide] |

From patent US7981903B2, “2-[2-{phenylamino}-1H-pyrrolo[2,3-D]pyrimidin-4-yl)amino] benzamide derivatives as IGF-1R inhibitors for the treatment of cancer” (GlaxoSmithKline LLC, priority 2007, dated 2011)
